Measurements: publication PMC9312901 (2022)

What was measured:
[1] = system: APT (3-O-C12-HSL aptamer) (DNA, aptamer) GCAATGGTACGGTACTTCCCGGGGCCCGCTTCTGGTGCGGTGTACTAGTGACCGCAAAAGTGCACGCTACTTTGCTAA; experiment: EIS aptasensor (C-SPE/AuNPs/APT/MCH); conditions: 10 µM compound, 30 min, room temperature; [Fe(CN)6]3-/4- redox probe
[2] = system: APT (3-O-C12-HSL aptamer) (DNA, aptamer) GCAATGGTACGGTACTTCCCGGGGCCCGCTTCTGGTGCGGTGTACTAGTGACCGCAAAAGTGCACGCTACTTTGCTAA; experiment: SPR, kinetic 1:1 Langmuir fit (kd/ka); conditions: Na+ 100 mM; K+ 100 mM; Mg2+ 10 mM (TRIS buffer; running buffer printed only as 10 mM TRIS); 10 mM TRIS pH 7.4 running buffer; aptamer on gold chip, MCH blocked; 10-1000 nM
[3] = system: APT (3-O-C12-HSL aptamer) (DNA, aptamer) GCAATGGTACGGTACTTCCCGGGGCCCGCTTCTGGTGCGGTGTACTAGTGACCGCAAAAGTGCACGCTACTTTGCTAA; experiment: SPR, steady-state affinity fit; conditions: Na+ 100 mM; K+ 100 mM; Mg2+ 10 mM (TRIS buffer; running buffer printed only as 10 mM TRIS); 10 mM TRIS pH 7.4 running buffer; aptamer on gold chip, MCH blocked; 10-1000 nM
[4] = system: APT (3-O-C12-HSL aptamer) (DNA, aptamer) GCAATGGTACGGTACTTCCCGGGGCCCGCTTCTGGTGCGGTGTACTAGTGACCGCAAAAGTGCACGCTACTTTGCTAA; experiment: DPV on C-SPE/AuNPs/APT/MCH electrode; conditions: 0.5 mM MB, 30 min; measured in 10 mM PBS pH 7.4; MB lost on successive blank incubations

| binding [1] | SMILES | other results |
| --- | --- | --- |
| weak | CCCC(=O)N[C@H]1CCOC1=O | – |
| yes | CCCCCCCC(=O)CC(=O)N[C@H]1CCOC1=O | – |
| – | CCCCCCCCCC(=O)CC(=O)N[C@H]1CCOC1=O | KD,kinetic [2]: 87.1 ± 10 nM; KD,equilibrium [3]: 106.7 ± 9.3 nM |
| yes | CCCCCCCCCCCC(=O)N[C@H]1CCOC1=O | – |
| – | CN(C)c1ccc2nc3ccc(N(C)C)cc3[s+]c2c1 | binding [4]: yes |
